Laboratory results as given in PubChem BioAssay (NCI).
Where “and” joins values, the source holds several entries; their conditions need not be identical. Equal values may be shown once.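 A five-concentration, 48-hour dose response in 96-well plates underlies each endpoint, interpolated linearly between surrounding concentrations. GI50 = concentration required for 50% inhibition of growth. TGI marks complete inhibition of growth.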

What was measured:
Experiment in all cases: NCI tumour cell line growth inhibition, 48 h
[1] = test system: PC-3 prostate
[2] = test system: KM12 colon
[3] = test system: SF-295 CNS
[4] = test system: HCT-116 colon
[5] = test system: RPMI-8226 leukemia
[6] = test system: CAKI-1 renal
[7] = test system: EKVX NSCLC
[8] = test system: COLO 205 colon
[9] = test system: HT29 colon
[10] = test system: SF-539 CNS

Row | SMILES | GI50 [1] | TGI [1] | GI50 [2] | TGI [2] | GI50 [3] | TGI [3] | GI50 [4] | TGI [4] | GI50 [5] | TGI [5] | GI50 [6] | TGI [6] | GI50 [7] | TGI [7] | GI50 [8] | TGI [8] | GI50 [9] | TGI [9] | GI50 [10] | TGI [10]
1 | COc1cc2c(cc1OCCCCCCN1CCN(c3ncnc4ccccc34)CC1)N=CC1CCCN1C2=O (configuration not stated) | 0.0508 µM | 0.742 µM | 0.116 µM | 0.375 µM | 0.0508 µM | 1.03 µM | 0.055 µM | 0.282 µM | < 0.0207 µM | 0.103 µM | 0.0331 µM | 0.436 µM | 0.354 µM | 2.01 µM | 0.0176 µM | 0.134 µM | 0.0449 µM | 0.919 µM | 0.109 µM | 0.402 µM
2 | CCOc1ccc(Nc2nc(-c3ccc4c(c3)NC(=O)CO4)cs2)cc1 | 3.04 µM | 32.8 µM | 11.1 µM | > 100 µM | 4.92 µM | > 100 µM | 4.01 µM | > 100 µM | 14.9 µM | > 100 µM | 19 µM | 90.7 µM | 6.59 µM | > 100 µM | 11.1 µM | 33.6 µM | 5.74 µM | > 100 µM | 16.1 µM | > 100 µM
3 | COc1cc2cc(C(=O)Nc3cc(N)c4ccccc4c3CCCl)[nH]c2c(OC)c1OC | 0.0252 µM | 1.59 µM | 0.0411 µM | 0.667 µM | 0.016 µM | > 16.5 µM | 0.0177 µM | 5.83 µM | < 0.021 µM | 0.189 µM | 0.0193 µM |  | 0.0993 µM | 0.517 µM | 0.0694 µM | 0.254 µM | 0.0438 µM | 12.7 µM | 0.161 µM | > 50 µM
4 | Nc1cc(-c2cccc(OC(F)(F)F)c2)nc2ccc(N3CCCC3)cc12 | 0.0455 µM and 0.0429 µM and 0.0372 µM | 26.9 µM and > 100 µM | 0.0386 µM and 0.0333 µM and 0.0372 µM | 14.9 µM and > 100 µM | 0.0584 µM and 0.0473 µM and 0.0448 µM | 5.61 µM and 18.9 µM and > 50.5 µM | 0.0384 µM and 0.0323 µM and 0.0258 µM |  | 0.0479 µM and 0.0404 µM and 0.0447 µM | 7.32 µM and > 33.2 µM and > 64.9 µM | 0.0515 µM and 0.0489 µM and 0.0417 µM | > 100 µM | 0.222 µM and 0.362 µM and 0.38 µM | > 100 µM | 0.041 µM and 0.0391 µM and 0.0357 µM | 1.42 µM and 2.61 µM | 0.0355 µM and 0.0338 µM and 0.0354 µM |  | 0.0358 µM and 0.0372 µM and 0.0354 µM | 1.24 µM and 1.54 µM and 1.42 µM
5 | Cc1cccc(Cl)c1NC(=O)/C=C/c1ccccc1 |  | > 100 µM |  | > 100 µM |  | > 100 µM |  | > 100 µM |  | > 100 µM |  | > 100 µM |  | > 100 µM |  | > 100 µM |  | > 100 µM |  | > 100 µM
6 | C=C[C@H]1CCC/C=C/[C@@H]2C[C@H](O)C[C@H]2[C@H](O)/C=C/C(=O)O1 | 0.0458 µM | > 100 µM | 0.022 µM | 0.0507 µM | 0.0537 µM | > 100 µM | 0.0238 µM | 0.0576 µM | 0.045 µM | > 100 µM | 0.035 µM | > 100 µM | 0.0395 µM | > 100 µM | 0.0194 µM | 0.0365 µM | 0.0244 µM | 0.0632 µM | 0.0531 µM | > 100 µM
7 | C=C1C(=O)[C@@]23CC1C(O)[C@@H](OC(C)=O)[C@@H]2C1(C)C(OC(C)=O)C[C@@H](OC(C)=O)C(C)(C)[C@@H]1C[C@H]3OC(C)=O (some centres not stated) | 10.6 µg/mL | > 10 µM and 22.4 µg/mL | > 10 µM and 5.94 µg/mL | > 10 µM and 17.1 µg/mL | > 10 µM and 11.6 µg/mL | > 10 µM and 25.6 µg/mL | 1.45 µM and 1.46 µg/mL | 2.98 µM and 2.89 µg/mL | 1.55 µM and 0.543 µg/mL | 4.28 µM and 3.5 µg/mL | 3.03 µg/mL | > 10 µM and 8.66 µg/mL | > 10 µM and 16.8 µg/mL | > 10 µM and 35.6 µg/mL | 1.69 µM and 1.72 µg/mL | 3.15 µM and 3.26 µg/mL | 6.13 µM and 2.61 µg/mL | > 10 µM and 7.22 µg/mL | 1.69 µM and 3.73 µg/mL | 3.7 µM and 11.6 µg/mL
8 | COC(=O)c1c2c(c(C)[n+]([O-])c1C)C(=O)C=C(NCc1ccc(OC)cc1)C2=O | 1.02 µM | 6.55 µM | 1.67 µM | 6.63 µM | 1.36 µM | 3.83 µM | 2.4 µM | 7.08 µM | 2.03 µM | 9.26 µM | 1.5 µM | 6.81 µM | 1.92 µM | 5.24 µM | 0.831 µM | 2.45 µM | 1.2 µM | > 36.7 µM | 1.77 µM | 4.36 µM
9 | O=C1c2cc([N+](=O)[O-])ccc2-c2cccc(F)c21 |  | > 100 µM |  | > 100 µM |  | > 100 µM |  | > 100 µM |  | > 100 µM |  | > 100 µM |  | 51.5 µM |  | > 100 µM |  | > 100 µM |  | > 100 µM
10 | Cc1cc(I)cc(CN(C)CCN2CCCC2)c1O | 28.2 µM | > 100 µM | 32.8 µM | 81.3 µM | 13.1 µM | 36.6 µM | 18.3 µM | > 88.1 µM | 19.2 µM | 46.2 µM | 29.6 µM | > 93.3 µM | 41.2 µM | > 100 µM | 19 µM | 40.2 µM | 17.3 µM | 35.5 µM | 21 µM | 53.3 µM
11 | COc1cc2c(Oc3ccc4[nH]c(C)cc4c3F)ccnc2cc1OCC1(N)CC1 | 1.36 µM | 13.4 µM | 1.24 µM | 12.5 µM | 1.07 µM | 3.92 µM | 0.745 µM | 10.6 µM | 2.1 µM | 5.95 µM | 1.04 µM | 6.99 µM | 2.79 µM | > 100 µM | 2.29 µM | 5.61 µM | 0.874 µM | 3.3 µM | 0.315 µM | 1.81 µM
12 | Cc1ccc(C(=O)C(Cl)C(Cl)c2ccc(C)cc2)cc1 (configuration not stated) |  | 18.4 µM |  | 13.9 µM |  | 23.7 µM |  | 4 µM |  | 7.25 µM |  | 5.53 µM |  | 19.5 µM |  | 4.1 µM |  | 4.31 µM |  | 6.38 µM
13 | O=c1[nH]ccc2nc(N3CCC(O)CC3)nc(Nc3cccc(C(F)(F)F)c3)c12 | 2.29 µM | 13 µM | 1.44 µM | 5.42 µM | 2.94 µM | 7.85 µM | 0.88 µM | 12.3 µM | 2.95 µM | 92 µM | 0.282 µM | 6.3 µM | 2.85 µM | 12.1 µM | 3.08 µM | 14.5 µM | 3.88 µM | 96.3 µM | 5.19 µM | 38.6 µM
14 | CCN=c1cc2sc3cc(NCC)c(C)cc3nc-2cc1C | 0.133 µM | 4.72 µM | 0.654 µM | 11 µM | 0.669 µM | 4.81 µM | 0.361 µM | 2.01 µM | 0.233 µM | 3.45 µM | 1.34 µM | 4.6 µM | 0.632 µM | 4.53 µM | 2.15 µM | 7.78 µM | 2.98 µM | 10.4 µM | 0.434 µM | 10.2 µM
15 | COc1cccc(-c2nc3sccn3c2-c2ccnc(NCCNS(=O)(=O)c3ccccc3)c2)c1 | 1.68 µM | > 100 µM | 3.13 µM | 25 µM | 2.62 µM | > 100 µM | 2.73 µM | > 100 µM | 1.05 µM | 3.65 µM | 1.42 µM | > 100 µM | 3.13 µM | > 100 µM | 1.87 µM | 18.2 µM | 2.37 µM | 34.3 µM | 4.98 µM | > 100 µM
16 | NC(=N\N=C/c1cccc([N+](=O)[O-])c1)/C(N)=N\N=C/c1cccc([N+](=O)[O-])c1 | > 100 µM | > 100 µM | > 100 µM | > 100 µM | > 100 µM | > 100 µM | > 100 µM | > 100 µM | > 100 µM | > 100 µM | > 100 µM | > 100 µM | > 100 µM | > 100 µM | > 100 µM | > 100 µM | > 100 µM | > 100 µM | > 100 µM | > 100 µM
17 | O=P([O-])(O)OP(=O)([O-])O.[NH-][C@@H]1CCCC[C@H]1[NH-].[Pt+4] | > 100 µM and 20.3 µM | > 100 µM | 50.8 µM and 24 µM | > 100 µM | 26.2 µM and 14.5 µM | > 100 µM | 5.01 µM and 2.61 µM | > 100 µM | 13.7 µM and 3.16 µM | > 100 µM | 6.41 µM and 5.25 µM | > 100 µM and 41.7 µM | > 100 µM | > 100 µM | 6.13 µM and 6.32 µM | > 100 µM and 21.5 µM | 5.67 µM and 3.09 µM | > 100 µM | 18.6 µM and 8.47 µM | > 100 µM
18 | CC1(C)CC(n2cnc(-c3ccc(F)cc3)c2-c2ccnc(N)n2)CC(C)(C)N1 | > 25 µM | > 25 µM | 18.1 µM | > 25 µM | > 25 µM | > 25 µM | 15.1 µM | > 25 µM | > 25 µM | > 25 µM | > 25 µM | > 25 µM | > 25 µM | > 25 µM | 12.7 µM | > 25 µM | 11.1 µM | > 25 µM | > 25 µM | > 25 µM
19 | c1cc(OCCN2CCCCC2)ccc1CNc1ccc2nc(CCC3CCCCC3)[nH]c2c1 | 1.6 µM | 3.71 µM | 2.42 µM | 6.17 µM | 1.98 µM | 3.88 µM | 1.64 µM | 3.57 µM | 1.49 µM | 3.71 µM | 1.96 µM | 3.93 µM | 1.99 µM | 6.19 µM | 1.76 µM | 3.31 µM | 0.907 µM | 3.7 µM | 1.57 µM | 3.06 µM
